Source: patent US20220380347A1, “INHIBITORS OF CYSTEINE PROTEASES AND METHODS OF USE THEREOF” (Pardes Biosciences, Inc., priority 2020, published 2022)
Where two headings read alike, the source gives them in different places.

What was measured:
229E Mpro = 229E Mpro (Human coronavirus 229E, UniProt P0C6X1); assay: 229E Mpro enzymatic assay (standard methods, SARS-CoV2 Mpro assay given as exemplary); assay type: biochemical, human coronavirus (HCov) 229E
Procedure, shortened: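 Run by standard methods, with the SARS-CoV-2 Mpro protocol given as the model: E. coli-expressed C-His6 protease at 25 nM and substrate at 25 μM (Km 13.5 μM). Buffer pH 7.3 with 5 mM TCEP and 0.1% BSA; % inhibition versus controls fitted to variable-slope log(inhibitor)-response for IC50.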

[1] = molecular target: COVID-19 (nCoV-2019, SARS-CoV2) Mpro (Severe acute respiratory syndrome coronavirus 2, UniProt P0DTD1); assay: COVID-19 (nCoV-2019, SARS-CoV2) Mpro enzymatic assay; assay type: biochemical; settings: 25 nM Mpro, 25 μM substrate; read-out: COVID-19 Mpro IC50
HCov OC43 = assay: HCoV OC43 cytopathic effect (CPE) assay, CellTiter Glo; assay type: cell-based, human coronavirus (HCov) OC43
[2] = Betacoronavirus 1, OC43, read-out: OC43 IC50 (uM) MEDIAN, median
[3] = read-out: OC43 IC50 (uM) MEDIAN, median

Chain of 229E Mpro (P0C6X1 2966-3267): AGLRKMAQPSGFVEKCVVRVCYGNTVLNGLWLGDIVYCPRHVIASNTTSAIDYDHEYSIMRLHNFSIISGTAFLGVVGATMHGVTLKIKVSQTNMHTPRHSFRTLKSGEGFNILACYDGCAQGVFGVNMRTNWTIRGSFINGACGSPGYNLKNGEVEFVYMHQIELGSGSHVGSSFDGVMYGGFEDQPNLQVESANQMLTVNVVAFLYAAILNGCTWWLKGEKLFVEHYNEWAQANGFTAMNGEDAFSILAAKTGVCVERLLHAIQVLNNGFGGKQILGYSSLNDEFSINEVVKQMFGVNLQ

CO[C@@H]1C[C@H](C(=O)N(c2ccc(S(F)(F)(F)(F)F)cc2)C(C(=O)NC2CCOC(C)(C)C2)c2cccnc2)N(C#N)C1 (single isomer, unassigned) [1165 Isomer 1]
EC50 (229E Mpro; 229E Mpro EC50): < 2000 nM
IC50 [1]: < 2000 nM
IC50 (HCov OC43; [2]): < 2 µM

C[C@@]1(O)C[C@H](C(=O)N(c2ccc(S(F)(F)(F)(F)F)cc2)C(C(=O)NC2CCC(F)(F)CC2)c2cccnc2F)N(C#N)C1 (single isomer, unassigned) [1158 Isomer 2]
EC50 (229E Mpro; read-out: 229E Mpro EC50): < 2000 nM
IC50 [1]: 2000 to 10000 nM
IC50 (HCov OC43; [3]): < 2 µM

C[C@@]1(O)C[C@H](C(=O)N(c2ccc(S(F)(F)(F)(F)F)cc2)C(C(=O)NC2CCC(F)(F)CC2)c2ccc(F)nc2)N(C#N)C1 (single isomer, unassigned) [1157 Isomer 1]
EC50 (229E Mpro; 229E Mpro EC50): < 2000 nM
IC50 [1]: < 2000 nM
IC50 (HCov OC43; [2]): < 2 µM

C[C@@]1(O)C[C@H](C(=O)N(c2ccc(S(F)(F)(F)(F)F)cc2)C(C(=O)NC2CCC(F)(F)CC2)c2ccc(F)nc2)N(C#N)C1 (single isomer, unassigned) [1157 Isomer 2]
EC50 (229E Mpro; read-out: 229E Mpro EC50): < 2000 nM
IC50 [1]: 2000 to 10000 nM
IC50 (HCov OC43; [3]): 2 to 10 µM

CC(C)(C)c1ccc(N(C(=O)[C@H]2CCCN2C#N)C(C(=O)NCCN2CCOCC2)c2cccnc2)cc1 (single isomer, unassigned) [391 Isomer 1]
EC50 (229E Mpro; 229E Mpro EC50): < 2000 nM
IC50 [1]: < 2000 nM
IC50 (HCov OC43; [3]): < 2 µM

CN1CC(C(=O)N(c2ccc(S(F)(F)(F)(F)F)cc2)C(C(=O)NC2CCC(F)(F)CC2)c2cncc(F)c2)N(C#N)CC1=O (single isomer, unassigned) [Compound 1161 Isomer 4, 1-cyano-N-[2-[(4,4-difluorocyclohexyl)amino]-1-(5-fluoro-3-pyridyl)-2-oxo-ethyl]-4-methyl-5-oxo-N-[4-(pentafluoro-λ6-sulfanyl)phenyl]piperazine-2-carboxamide]
EC50 (229E Mpro; 229E Mpro EC50): 2000 to 10000 nM
IC50 [1]: 2000 to 10000 nM
IC50 (HCov OC43; read-out: OC43 IC50 (uM) MEDIAN, median, listed as 1161 Isomer 4): 2 to 10 µM

CO[C@@H]1C[C@H](C(=O)N(c2ccc(C(C)(C)C)cc2)C(C)(C(=O)NC2CCC(F)(F)CC2)c2cccnc2)N(C#N)C1 (single isomer, unassigned) [1232 Isomer 2]
EC50 (229E Mpro; 229E Mpro EC50): < 2000 nM
IC50 [1]: < 2000 nM
IC50 (HCov OC43; [3]): < 2 µM

CO[C@@H]1C[C@H](C(=O)N(c2ccc(S(F)(F)(F)(F)F)cc2)C(C(=O)NCC(C)(C)OC)c2cccnc2)N(C#N)C1 (single isomer, unassigned) [1194 Isomer 1]
EC50 (229E Mpro; 229E Mpro EC50): < 2000 nM
IC50 [1]: < 2000 nM
IC50 (HCov OC43; [2]): < 2 µM

CO[C@@H]1C[C@H](C(=O)N(c2ccc(S(F)(F)(F)(F)F)cc2)C(C(=O)NC(C)C2CCCCN2C(=O)OC(C)(C)C)c2cccnc2)N(C#N)C1 (single isomer, unassigned) [1303 Isomer 2.2]
EC50 (229E Mpro; 229E Mpro EC50): < 2000 nM
IC50 [1]: < 2000 nM
IC50 (HCov OC43; [3]): < 2 µM

CO[C@@H]1C[C@H](C(=O)N(c2ccc(S(F)(F)(F)(F)F)cc2)C(C(=O)NC2CCC(F)(F)CC2)c2cncs2)N(C#N)C1 (stereo partly drawn) [Compound 1311, (2R,4R)-1-cyano-N-[2-[(4,4-difluorocyclohexyl)amino]-2-oxo-1-thiazol-5-yl-ethyl]-4-methoxy-N-[4-(pentafluoro-λ^6-sulfanyl)phenyl]pyrrolidine-2-carboxamide]
EC50 (229E Mpro; 229E Mpro EC50): < 2000 nM
IC50 [1]: < 2000 nM
IC50 (HCov OC43; [2]): < 2 µM

CN1CC(C(=O)N(c2ccc(S(F)(F)(F)(F)F)cc2)C(C(=O)NC2CCC(F)(F)CC2)c2cncc(F)c2)N(C#N)CC1=O (single isomer, unassigned) [Compound 1161 Isomer 3, 1-cyano-N-[2-[(4,4-difluorocyclohexyl)amino]-1-(5-fluoro-3-pyridyl)-2-oxo-ethyl]-4-methyl-5-oxo-N-[4-(pentafluoro-λ6-sulfanyl)phenyl]piperazine-2-carboxamide]
EC50 (229E Mpro; 229E Mpro EC50): 2000 to 10000 nM
IC50 [1]: 2000 to 10000 nM
IC50 (HCov OC43; read-out: OC43 IC50 (uM) MEDIAN, median, listed as 1161 Isomer 3): 10 to 30 µM

CO[C@@H]1C[C@H](C(=O)N(c2ccc(S(F)(F)(F)(F)F)cc2)C(C(=O)NC(C)C2CCCCN2C(=O)OC(C)(C)C)c2cccnc2)N(C#N)C1 (single isomer, unassigned) [1303 Isomer 3.1]
EC50 (229E Mpro; 229E Mpro EC50): < 2000 nM
IC50 [1]: < 2000 nM
IC50 (HCov OC43; [3]): < 2 µM

CO[C@@H]1C[C@H](C(=O)N(c2ccc(S(F)(F)(F)(F)F)cc2)C(C(=O)N2CCN(C)C(=O)C2)c2cccnc2)N(C#N)C1 (stereo partly drawn) [Compound 1188]
EC50 (229E Mpro; 229E Mpro EC50): < 2000 nM
IC50 [1]: 2000 to 10000 nM
IC50 (HCov OC43; [2]): < 2 µM

CO[C@@H]1C[C@H](C(=O)N(c2ccc(S(F)(F)(F)(F)F)cc2)C(C(=O)NC(C)C2CCCCN2C(=O)OC(C)(C)C)c2cccnc2)N(C#N)C1 (single isomer, unassigned) [1303 Isomer 1]
EC50 (229E Mpro; 229E Mpro EC50): < 2000 nM
IC50 [1]: 2000 to 10000 nM
IC50 (HCov OC43; [3]): 2 to 10 µM

CC(C)(C)c1ccc(NC2(C#N)CCCc3ccncc32)cc1 (stereo not drawn) [Compound 690a]
EC50 (229E Mpro; 229E Mpro EC50): > 30000 nM
IC50 [1]: > 30000 nM
IC50 (HCov OC43; [2]): > 30 µM

CO[C@@H]1C[C@H](C(=O)N(c2ccc(S(F)(F)(F)(F)F)cc2)C(C(=O)NCCc2cccc(F)c2)c2cccnc2)N(C#N)C1 (single isomer, unassigned) [1197 Isomer 2]
EC50 (229E Mpro; read-out: 229E Mpro EC50): < 2000 nM
IC50 [1]: 2000 to 10000 nM
IC50 (HCov OC43; [3]): 2 to 10 µM

CO[C@@H]1C[C@H](C(=O)N(c2ccc(C3CC3)cc2F)C(C(=O)NC2CCC(F)(F)CC2)c2cnccc2C(F)(F)F)N(C#N)C1 (single isomer, unassigned) [Compound 1309 Isomer 2]
EC50 (229E Mpro; read-out: 229E Mpro EC50): < 2000 nM
IC50 [1]: 2000 to 10000 nM
IC50 (HCov OC43; [3]): 2 to 10 µM

N#CN1C[C@@H](OC(F)F)C[C@@H]1C(=O)N(c1ccc(S(F)(F)(F)(F)F)cc1)C(C(=O)NC1CCC(F)(F)CC1)c1cncc(F)c1 (single isomer, unassigned) [Compound 823a Isomer 2]
EC50 (229E Mpro; read-out: 229E Mpro EC50): < 2000 nM
IC50 [1]: < 2000 nM
IC50 (HCov OC43; [3]): 2 to 10 µM

CO[C@@H]1C[C@H](C(=O)N(c2ccc(S(F)(F)(F)(F)F)cc2)C(C(=O)NCCN2CCN(C(=O)OC(C)(C)C)CC2)c2cccnc2)N(C#N)C1 (stereo partly drawn) [Compound 1267, tert-butyl4-[2-[[2-[N-[(2R,4R)-1-cyano-4-methoxy-pyrrolidine-2-carbonyl]-4-(pentafluoro-λ^6-sulfanyl)anilino]-2-(3-pyridyl)acetyl]amino]ethyl]piperazine-1-carboxylate]
EC50 (229E Mpro; 229E Mpro EC50): < 2000 nM
IC50 [1]: 2000 to 10000 nM
IC50 (HCov OC43; [2]): < 2 µM

N#C[C@H]1C[C@H](C(=O)N(c2ccc(S(F)(F)(F)(F)F)cc2)C(C(=O)NC2CCC(F)(F)CC2)c2cncc(F)c2)N(C#N)C1 (single isomer, unassigned) [1100 Isomer 1]
EC50 (229E Mpro; 229E Mpro EC50): < 2000 nM
IC50 [1]: < 2000 nM
IC50 (HCov OC43; [2]): < 2 µM

CO[C@@H]1C[C@H](C(=O)N(c2ccc(S(F)(F)(F)(F)F)cc2)C(C(=O)NC2CCC(F)(F)CC2)c2cnccc2C(F)(F)F)N(C#N)C1 (single isomer, unassigned) [1202 Isomer 1]
EC50 (229E Mpro; 229E Mpro EC50): < 2000 nM
IC50 [1]: < 2000 nM
IC50 (HCov OC43; [2]): < 2 µM

C[C@@H]1CN(C#N)[C@H]1C(=O)N(c1ccc(S(F)(F)(F)(F)F)cc1)C(C(=O)NC1CCC(F)(F)CC1)c1cncc(F)c1 (single isomer, unassigned) [1211 Isomer 2]
EC50 (229E Mpro; read-out: 229E Mpro EC50): < 2000 nM
IC50 [1]: < 2000 nM
IC50 (HCov OC43; [3]): < 2 µM

CC(C)(C)c1ccc(N(C(=O)[C@H]2CCC(C)(C)N2C#N)C(C(=O)NC2CCCCC2)c2cccnc2)cc1 (single isomer, unassigned) [Compound 262 Isomer 1]
EC50 (229E Mpro; 229E Mpro EC50): > 30000 nM
IC50 [1]: > 30000 nM
IC50 (HCov OC43; read-out: OC43 IC50 (uM) MEDIAN, median, listed as 262 Isomer 1): > 30 µM

N#CN1C[C@@H](OC(F)F)C[C@@H]1C(=O)N(c1ccc(S(F)(F)(F)(F)F)cc1)C(C(=O)NC1CCC(F)(F)CC1)c1cncc(F)c1 (single isomer, unassigned) [Compound 823a Isomer 1]
EC50 (229E Mpro; 229E Mpro EC50): < 2000 nM
IC50 [1]: < 2000 nM
IC50 (HCov OC43; [2]): < 2 µM

CO[C@@H]1C[C@H](C(=O)N(c2ccc(S(F)(F)(F)(F)F)cc2)C(C(=O)NC2CCC(F)(F)CC2)c2nncn2C(C)C)N(C#N)C1 (stereo partly drawn) [Compound 1307, (2R,4R)-1-cyano-N-[2-[(4,4-difluorocyclohexyl)amino]-1-(4-isopropyl-1,2,4-triazol-3-yl)-2-oxo-ethyl]-4-methoxy-N-[4-(pentafluoro-λ6-sulfanyl)phenyl]pyrrolidine-2-carboxamide]
EC50 (229E Mpro; 229E Mpro EC50): > 30000 nM
IC50 [1]: > 30000 nM
IC50 (HCov OC43; [2]): > 30 µM

N#CN1C[C@@H]2C[C@@H]2[C@@H]1C(=O)N(c1ccc(S(F)(F)(F)(F)F)cc1)C(C(=O)NC1CCC(F)(F)CC1)c1cncc(F)c1 (single isomer, unassigned) [1096 Isomer 1]
EC50 (229E Mpro; 229E Mpro EC50): < 2000 nM
IC50 [1]: 2000 to 10000 nM
IC50 (HCov OC43; [2]): 2 to 10 µM

CO[C@@H]1C[C@H](C(=O)N(c2ccc(S(F)(F)(F)(F)F)cc2)C(C(=O)NC2CCC(F)(F)CC2)c2cnccc2C)N(C#N)C1 (single isomer, unassigned) [1199 Isomer 2]
EC50 (229E Mpro; read-out: 229E Mpro EC50): < 2000 nM
IC50 [1]: < 2000 nM
IC50 (HCov OC43; [3]): < 2 µM

N#CN1C[C@H](O)C[C@@H]1C(=O)N(c1ccc(S(F)(F)(F)(F)F)cc1F)C(C(=O)NC1CCC(F)(F)CC1)c1cccnc1 (single isomer, unassigned) [1288a Isomer 1]
EC50 (229E Mpro; 229E Mpro EC50): < 2000 nM
IC50 [1]: < 2000 nM
IC50 (HCov OC43; [2]): < 2 µM

CC(C)(C)c1ccc(N(C(=O)C2CCC(F)(F)CN2C#N)C(C(=O)NC2CCCCC2)c2cccnc2)cc1 (single isomer, unassigned) [885 Isomer 1, N-(4-(tert-butyl)phenyl)-1-cyano-N-(2-(cyclohexylamino)-2-oxo-1-(pyridin-3-yl)ethyl)-5,5-difluoropiperidine-2-carboxamide]
EC50 (229E Mpro; 229E Mpro EC50): 10000 to 30000 nM
IC50 [1]: > 30000 nM
IC50 (HCov OC43; [3]): > 30 µM

N#CN1CC2C[C@@]1(C(=O)N(c1ccc(S(F)(F)(F)(F)F)cc1)C(C(=O)NC1CCC(F)(F)CC1)c1cncc(F)c1)CO2 (stereo partly drawn) [Compound 1136b]
EC50 (229E Mpro; 229E Mpro EC50): 2000 to 10000 nM
IC50 [1]: 2000 to 10000 nM
IC50 (HCov OC43; [2]): > 30 µM
